Results on one compound are retold here after patent publication US20080254480A1, “MICROCYTOXICITY ASSAY BY PRE-LABELING TARGET CELLS” (University of Pittsburgh - Of the Commonwealth System of …, priority 2007, published 2008).

Data set [1] relates to BT-20 tumor cells. Kind of data set: BrdU labeling of cell nuclear DNA of target cells in microwells of Tarasaki plates. The data set is classed as cell-based, human. The conditions noted are these: 5 μM of BrdU, co-incubated for 24 hours. Here is the method: FIG. 2. Graph depicting BrdU concentration versus incubation period for labeling of target cells in microwells of Tarasaki plates. BT-20 tumor cells (250/microwell) were seeded in the miniplates and incubated for 24 hours. Various concentrations of BrdU then were added to the microwells containing adherent tumor cells, and the incubation was continued for various periods of time, as indicated. After this labeling, the adherent tumor cells were fixed and stained, with an isotype-matched control or an anti-BrdU mAb, and then visually analyzed. Each point on the figure represents a mean value of a triplicate. SD was less than 10% of the mean values.
BrdU-labeling of target cells in microwells. Suspensions of tumor target cells were prepared from their adherent monolayers, as described above. Target cells were resuspended in tissue culture medium (e.g., RPMI-1640 supplemented with 10% FCS) in an adequate concentration, to contain 100 to 500 cells per 10 μl. BrdU solution was added to this cell suspension, to get its final concentration of 5 μM. In some experiments, to determine the optimal labeling conditions, the concentration of BrdU was varied. […]
(Uptake of a labelled nucleoside into DNA is a usual measure of proliferation.)

The test system of data set [2] is target cells. Kind of data set: Functional properties of BrdU labeled target cells (viability, proliferation, TNF family receptor expression). The data set is classed as cell-based. As to conditions: trypan blue dye exclusion; increase of cell numbers in culture; flow cytometry. The source says:
In order to determine whether BrdU labeling of cell nuclear DNA affects cellular functions, the inventor examined viability (by trypan blue dye exclusion assay) and proliferation (by evaluation of increase of cell numbers in culture) of target cells, after they were labeled with the DNA metabolic label. In addition, expression of the cell membrane-bound TNF family receptors involved in apoptosis mediated by immune effector cells, such as TNFR1, TNFR2, Fas and LT-βR, was investigated using flow cytometry.

`O=c1[nH]c(=O)n([C@H]2C[C@H](O)[C@@H](CO)O2)cc1Br` [BrdU, 5-bromo-2′-deoxyuridine]: in data set [1], the “strong and uniformed labeling of nuclei” value is reported as 90%. In data set [2], the “effect of BrdU labeling on cellular functions tested (viability, proliferation, expression of TNFR1, TNFR2, Fas and LT-βR)” value is “no significant effect”.
